Like-named read-outs stand apart in the source and are kept apart here.
What was measured:
[1] = test system: phosphorylated AKT Ser473 (pAKT S473), mTORC2 activity, PC3 cells; test: mTOR target engagement assay, immunofluorescent cell-based, pAKT S473 readout (mTORC2 activity); details: Homo sapiens
Summary of the method: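 After blocking, cells were stained overnight at 4 °C with anti-pAKT S473 antibody, then a fluorescent secondary; inhibition was read as reduced fluorescence intensity.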

[2] = test system: phosphorylated 4E-BP1 Thr37/46 (p4E-BP1 Thr37/46), mTORC1 activity, PC3 cells; test: mTOR target engagement assay, immunofluorescent cell-based, p4E-BP1 Thr37/46 readout (mTORC1 activity); details: Homo sapiens
Summary of the method: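 PTEN-mutant PC3 prostate cells were treated with serially diluted compound in 5% FBS F12 medium (0.25% DMSO) for ninety minutes at 37° C, glyoxal-fixed, then immunostained overnight at 4° C for p4E-BP1 Thr37/46 with an Alexa Fluor 488 secondary. IC50 came from four-parameter fits of fluorescence, DMSO-only wells defining 100%.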

[3] = PC-3, Table 6-1, PC3 cells, read-out: p4E-BP1 Thr37/46 IC50

Row | SMILES | IC50 ([1]; PC-3, PC3 cells, compound treatment ninety minutes at 37° C.) | IC50 ([2]; PC-3, PC3 cells, compound treatment ninety minutes at 37° C., read-out: p4E-BP1 Thr37/46 IC50) | IC50 ([1]; PC-3, Table 6-1, PC3 cells) | IC50 [2, 3] | IC50 ([2]; PC-3, read-out: p4E-BP1 Thr37/46 IC50)
1 | CCc1c([C@@H]2C[C@H]3CC[C@@H](C2)N3C(=O)c2nc(C)n[nH]2)nc2c(-c3ccc(-c4ccccc4)nc3)cnn2c1N [Compound 5.9, ((1R,3s,5S)-3-(7-amino-6-ethyl-3-(6-phenylpyridin-3-yl)pyrazolo[1,5-a]pyrimidin-5-yl)-8-azabicyclo[3.2.1]octan-8-yl)(3-methyl-1H-1,2,4-triazol-5-yl)methanone] | 1 to 100 nM | 1 to 100 nM |  |  | 
2 | Nc1c(C2CC2)c([C@@H]2C[C@H]3CC[C@@H](C2)N3C(=O)CO)nc2c(-c3ccc(-c4ncc[nH]4)nc3)cnn12 [Compound 6.1, 1-((1R,3s,5S)-3-(3-(6-(1H-imidazol-2-yl)pyridin-3-yl)-7-amino-6-cyclopropylpyrazolo [1,5-a]pyrimidin-5-yl)-8-azabicyclo[3.2.1]octan-8-yl)-2-hydroxyethanone] |  |  | 1 to 100 nM | 1 to 100 nM | 
3 | Nc1c(C2CC2)c([C@@H]2C[C@H]3CC[C@@H](C2)N3C(=O)c2nnc[nH]2)nc2c(-c3ccc(-c4ncc[nH]4)nc3)cnn12 [Compound 6.2, ((1R,3s,5S)-3-(3-(6-(1H-imidazol-2-yl)pyridin-3-yl)-7-amino-6-cyclopropylpyrazolo [1,5-a]pyrimidin-5-yl)-8-azabicyclo[3.2.1]octan-8-yl)(4H-1,2,4-triazol-3-yl)methanone] |  |  | 1 to 100 nM | 1 to 100 nM | 
4 | CC(=O)c1c([C@@H]2C[C@H]3CC[C@@H](C2)N3C(=O)CO)nc2c(-c3ccc(-c4ncc[nH]4)nc3)cnn2c1N [Compound 6.3, 1-((1R,3s,5S)-3-(3-(6-(1H-imidazol-2-yl)pyridin-3-yl)-6-acetyl-7-aminopyrazolo[1,5-a]pyrimidin-5-yl)-8-azabicyclo[3.2.1]octan-8-yl)-2-hydroxyethanone] |  |  | 1 to 100 nM | 1 to 100 nM | 
5 | CC(=O)c1c([C@@H]2C[C@H]3CC[C@@H](C2)N3C(=O)c2nnc[nH]2)nc2c(-c3ccc(-c4ncc[nH]4)nc3)cnn2c1N [Compound 6.4, 1-(3-(6-(1H-imidazol-2-yl)pyridin-3-yl)-5-((1R,3s,5S)-8-(4H-1,2,4-triazole-3-carbonyl)-8-azabicyclo[3.2.1]octan-3-yl)-7-aminopyrazolo[1,5-a]pyrimidin-6-yl)ethanone] |  |  | 1 to 100 nM | 1 to 100 nM | 
6 | CCc1c([C@@H]2C[C@H]3CC[C@@H](C2)N3C(=O)CO)nc2c(-c3ccc(-c4ncc[nH]4)nc3)cnn2c1N [Compound 6.5, 1-((1R,3s,5S)-3-(3-(6-(1H-imidazol-2-yl)pyridin-3-yl)-7-amino-6-ethylpyrazolo[1,5-a]pyrimidin-5-yl)-8-azabicyclo[3.2.1]octan-8-yl)-2-hydroxyethanone] |  |  | 1 to 100 nM | 1 to 100 nM | 
7 | CS(=O)(=O)c1c([C@@H]2C[C@H]3CC[C@@H](C2)N3C(=O)CO)nc2c(-c3ccc(-c4ncc[nH]4)nc3)cnn2c1N [Compound 6.6, 1-((1R,3s,5S)-3-(3-(6-(1H-imidazol-2-yl)pyridin-3-yl)-7-amino-6-(methylsulfonyl)pyrazolo [1,5-a]pyrimidin-5-yl)-8-azabicyclo[3.2.1]octan-8-yl)-2-hydroxyethanone] |  |  | 1 to 100 nM | 1 to 100 nM | 
8 | C=C(C)c1c([C@@H]2C[C@H]3CC[C@@H](C2)N3C(=O)CO)nc2c(-c3ccc(-c4ncc[nH]4)nc3)cnn2c1N [Compound 6.7, 1-((1R,3s,5S)-3-(3-(6-(1H-imidazol-2-yl)pyridin-3-yl)-7-amino-6-(prop-1-en-2-yl)pyrazolo[1,5-a]pyrimidin-5-yl)-8-azabicyclo[3.2.1]octan-8-yl)-2-hydroxyethanone] |  |  | 1 to 100 nM | 1 to 100 nM | 
9 | CC(=O)c1c([C@@H]2C[C@H]3CC[C@@H](C2)N3S(C)(=O)=O)nc2c(-c3ccc(-c4ncc[nH]4)nc3)cnn2c1N [Compound 6.10, 1-(3-(6-(1H-imidazol-2-yl)pyridin-3-yl)-7-amino-5-((1R,3s,5S)-8-(methylsulfonyl)-8-azabicyclo[3.2.1]octan-3-yl)pyrazolo[1,5-a]pyrimidin-6-yl)ethanone] |  |  | 1 to 100 nM | 1 to 100 nM | 
10 | CC(=O)c1c([C@@H]2C[C@H]3CC[C@@H](C2)N3C(=O)c2cc[nH]c2)nc2c(-c3ccc(-c4ncc[nH]4)nc3)cnn2c1N [Compound 6.11, 1-(3-(6-(1H-imidazol-2-yl)pyridin-3-yl)-5-((1R,3s,5S)-8-(1H-pyrrole-3-carbonyl)-8-azabicyclo[3.2.1]octan-3-yl)-7-aminopyrazolo[1,5-a]pyrimidin-6-yl)ethanone] |  |  | 1 to 100 nM | 1 to 100 nM | 
11 | CC(=O)c1c([C@@H]2C[C@H]3CC[C@@H](C2)N3C(=O)[C@@H](C)O)nc2c(-c3ccc(-c4ncc[nH]4)nc3)cnn2c1N [Compound 6.12, (R)-1-((1R,3S,5S)-3-(3-(6-(1H-imidazol-2-yl)pyridin-3-yl)-6-acetyl-7-aminopyrazolo[1,5-a]pyrimidin-5-yl)-8-azabicyclo[3.2.1]octan-8-yl)-2-hydroxypropan-1-one] |  |  | 1 to 100 nM | 1 to 100 nM | 
12 | Nc1c(C2CC2)c([C@@H]2C[C@H]3CC[C@@H](C2)N3C(=O)c2cc[nH]c2)nc2c(-c3ccc(-c4ncc[nH]4)nc3)cnn12 [Compound 6.14, ((1R,3s,5S)-3-(3-(6-(1H-imidazol-2-yl)pyridin-3-yl)-7-amino-6-cyclopropylpyrazolo [1,5-a]pyrimidin-5-yl)-8-azabicyclo[3.2.1]octan-8-yl)(1H-pyrrol-3-yl)methanone] |  |  | 1 to 100 nM | 100 to 1000 nM | 
13 | CC(=O)c1c([C@@H]2C[C@H]3CC[C@@H](C2)N3C=O)nc2c(-c3ccc(-c4ncc[nH]4)nc3)cnn2c1N [Compound 6.15, (1R,3s,5S)-3-(3-(6-(1H-imidazol-2-yl)pyridin-3-yl)-6-acetyl-7-aminopyrazolo[1,5-a]pyrimidin-5-yl)-8-azabicyclo[3.2.1]octane-8-carbaldehyde] |  |  | 1 to 100 nM | 1 to 100 nM | 
14 | COCC(=O)N1[C@@H]2CC[C@H]1C[C@H](c1nc3c(-c4ccc(-c5ncc[nH]5)nc4)cnn3c(N)c1C(C)=O)C2 [Compound 6.16, 1-((1R,3s,5S)-3-(3-(6-(1H-imidazol-2-yl)pyridin-3-yl)-6-acetyl-7-aminopyrazolo[1,5-a]pyrimidin-5-yl)-8-azabicyclo[3.2.1]octan-8-yl)-2-methoxyethanone] |  |  | 1 to 100 nM | 1 to 100 nM | 
15 | CC(=O)c1c([C@@H]2C[C@H]3CC[C@@H](C2)N3C(C)=O)nc2c(-c3ccc(-c4ncc[nH]4)nc3)cnn2c1N [Compound 6.18, 1-(3-(6-(1H-imidazol-2-yl)pyridin-3-yl)-5-((1R,3s,5S)-8-acetyl-8-azabicyclo[3.2.1]octan-3-yl)-7-aminopyrazolo[1,5-a]pyrimidin-6-yl)ethanone] |  |  | 1 to 100 nM | 1 to 100 nM | 
16 | CC(=O)c1c([C@@H]2C[C@H]3CC[C@@H](C2)N3C(=O)C2CCCO2)nc2c(-c3ccc(-c4ncc[nH]4)nc3)cnn2c1N (stereo partly drawn) [Compound 6.19, 1-(3-(6-(1H-imidazol-2-yl)pyridin-3-yl)-7-amino-5-((1R,3s,5S)-8-(tetrahydrofuran-2-carbonyl)-8-azabicyclo[3.2.1]octan-3-yl)pyrazolo[1,5-a]pyrimidin-6-yl)ethanone] |  |  | 1 to 100 nM | 100 to 1000 nM | 
17 | CC(=O)c1c([C@@H]2C[C@H]3CC[C@@H](C2)N3C(=O)c2nnc(N)[nH]2)nc2c(-c3ccc(-c4ncc[nH]4)nc3)cnn2c1N [Compound 6.20, 1-(3-(6-(1H-imidazol-2-yl)pyridin-3-yl)-7-amino-5-((1R,3s,5S)-8-(5-amino-4H-1,2,4-triazole-3-carbonyl)-8-azabicyclo[3.2.1]octan-3-yl)pyrazolo[1,5-a]pyrimidin-6-yl)ethanone] |  |  | 1 to 100 nM | 1 to 100 nM | 
18 | CC(=O)c1c([C@@H]2C[C@H]3CC[C@@H](C2)N3C(=O)c2nnc(C)[nH]2)nc2c(-c3ccc(-c4ncc[nH]4)nc3)cnn2c1N [Compound 6.21, 1-(3-(6-(1H-imidazol-2-yl)pyridin-3-yl)-7-amino-5-((1R,3s,5S)-8-(5-methyl-4H-1,2,4-triazole-3-carbonyl)-8-azabicyclo[3.2.1]octan-3-yl)pyrazolo[1,5-a]pyrimidin-6-yl)ethanone] |  |  | 1 to 100 nM | 1 to 100 nM | 
19 | CC(=O)c1c([C@@H]2C[C@H]3CC[C@@H](C2)N3C(=O)CF)nc2c(-c3ccc(-c4ncc[nH]4)nc3)cnn2c1N [Compound 6.22, 1-((1R,3s,5S)-3-(3-(6-(1H-imidazol-2-yl)pyridin-3-yl)-6-acetyl-7-aminopyrazolo[1,5-a]pyrimidin-5-yl)-8-azabicyclo[3.2.1]octan-8-yl)-2-fluoroethanone] |  |  | 1 to 100 nM |  | 1 to 100 nM
20 | CC(=O)c1c([C@@H]2C[C@H]3CC[C@@H](C2)N3C(=O)C(C)F)nc2c(-c3ccc(-c4ncc[nH]4)nc3)cnn2c1N (stereo partly drawn) [Compound 6.23, 1-((1R,3s,5S)-3-(3-(6-(1H-imidazol-2-yl)pyridin-3-yl)-6-acetyl-7-aminopyrazolo[1,5-a]pyrimidin-5-yl)-8-azabicyclo[3.2.1]octan-8-yl)-2-fluoropropan-1-one] |  |  | 1 to 100 nM | 100 to 1000 nM | 
21 | CNC(=O)N1[C@@H]2CC[C@H]1C[C@H](c1nc3c(-c4ccc(-c5ncc[nH]5)nc4)cnn3c(N)c1C(C)=O)C2 [Compound 6.24, (1R,3s,5S)-3-(3-(6-(1H-imidazol-2-yl)pyridin-3-yl)-6-acetyl-7-aminopyrazolo[1,5-a]pyrimidin-5-yl)-N-methyl-8-azabicyclo[3.2.1]octane-8-carboxamide] |  |  | 1 to 100 nM | 1 to 100 nM | 

— patent US9227971B2, “Pyrazolo[1,5-a]pyrimidine compounds as mTOR inhibitors” (Merck Sharp & Dohme Corp., priority 2010, dated 2016)
